Test results reported in patent publication US10538555B2, “Macrocyclic inhibitors of the PD-1/PD-L1 and CD80(B7-1)/PD-L1 protein/protein interactions” (BRISTOL-MYERS SQUIBB COMPANY, priority 2014, dated 2020).
*1 amine or outer side, *2 acyl side, *3 side chain or, on linkers, in order; H or OH if unused. Where a SMILES comes first, the peptide text is derived from it. Bridges are numbered along the chain shown (N, C = ends). [ ]: non-standard residue; d: D form. ξ: configuration not given here. Trp(1-CH2COOH) = N[C@@H](Cc1cn(CC(=O)O)c2ccccc12)C(=O)O; Trp(βS-Me) = C[C@@H](c1c[nH]c2ccccc12)[C@H](N)C(=O)O; Phe(3,4,5-F3) = N[C@@H](Cc1cc(F)c(F)c(F)c1)C(=O)O; Phe(2,4-Cl2) = N[C@@H](Cc1ccc(Cl)cc1Cl)C(=O)O; Trp(1-Me) = Cn1cc(C[C@H](N)C(=O)O)c2ccccc21; NMePhe(4-F) = CN[C@@H](Cc1ccc(F)cc1)C(=O)O; X8 = O=C([C@H](CC1CNc2ccccc21)N[*:1])[*:2]; Phe(4-F) = N[C@@H](Cc1ccc(F)cc1)C(=O)O; d(cisHyp) = O=C(O)[C@H]1C[C@@H](O)CN1; NMeIle(3ξ) = CCC(C)[C@H](NC)C(=O)O; Hyp = O=C(O)[C@@H]1C[C@@H](O)CN1; NMeF = CN[C@@H](Cc1ccccc1)C(=O)O; NMeNle = CCCC[C@H](NC)C(=O)O; Pip = O=C(O)[C@@H]1CCCCN1; dPip = O=C(O)[C@H]1CCCCN1; hSer = N[C@@H](CCO)C(=O)O; NMeA = CN[C@@H](C)C(=O)O; Orn = NCCC[C@H](N)C(=O)O; Dab = NCC[C@H](N)C(=O)O; Dap = NC[C@H](N)C(=O)O; ξC = NC(CS)C(=O)O

target: T1, Human PD-L1/PD-1 (Homo sapiens, UniProt Q9NZQ7); assay: HTRF Human PD-L1/PD-1 binding assay (PD-1-Ig/PD-L1-His); details: PD-L1-His 10 nM, PD-1-Ig 20 nM; class symbol; read-out: HTRF Human PD-L1/PD-1 Binding Assay IC50 Range
T1 construct: TVMV protease cleavage site (C); made in house; host or cells: HEK293T cells
T1 sequence (Q9NZQ7 with tags, fused parts or gaps): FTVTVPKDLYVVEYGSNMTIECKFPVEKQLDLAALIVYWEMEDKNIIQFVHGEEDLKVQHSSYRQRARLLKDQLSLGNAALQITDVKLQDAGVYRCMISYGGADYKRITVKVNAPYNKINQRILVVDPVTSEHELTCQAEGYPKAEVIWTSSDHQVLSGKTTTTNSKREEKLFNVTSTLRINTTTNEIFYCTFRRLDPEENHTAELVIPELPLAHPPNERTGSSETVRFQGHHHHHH
Summary of the method: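 Competition of macrocyclic peptides for PD-1/PD-L1 binding measured by HTRF in dPBS containing 0.1% BSA and 0.05% Tween-20. Compound and PD-L1-His (10 nM final) incubated 15 min before PD-1-Ig (20 nM final) and a further 15 min.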

IC50 [nM] | Compound
1000 to 10000 | CCCC[C@H]1C(=O)N2CCC[C@@H]2C(=O)N[C@@H](CC(=O)O)C(=O)N[C@@H](C(C)C)C(=O)N(C)[C@@H](C(C)CC)C(=O)N[C@@H](CCC(N)=O)C(=O)N2CCCC[C@@H]2C(=O)N[C@@H](Cc2c[nH]c3ccccc23)C(=O)N[C@@H](Cc2ccc(O)cc2)C(=O)N[C@@H](CC(C)C)C(=O)N[C@H](C(=O)NCC(N)=O)CSCC(=O)N[C@@H](Cc2ccc(F)cc2)C(=O)N(C)[C@@H](Cc2ccccc2)C(=O)N1C (stereo partly drawn) [Example 9261] ({CH2CO}-[Phe(4-F)][NMeF][NMeNle][dP]DV[NMeIle(3ξ)]Q[dPip]WYLCG-NH2; thioether N-13)
1000 to 10000 | CCCC[C@H]1C(=O)N[C@@H](CC(=O)O)C(=O)N2CCC[C@H]2C(=O)N[C@@H](Cc2c[nH]cn2)C(=O)N[C@@H](CCC(N)=O)C(=O)N2C[C@H](O)C[C@H]2C(=O)N[C@@H]([C@@H](C)c2c[nH]c3ccccc23)C(=O)N[C@@H](CO)C(=O)N[C@@H](Cc2c[nH]c3ccccc23)C(=O)N(C)[C@@H](C)C(=O)N(C)[C@@H](C)C(=O)N[C@@H](CCC(=O)O)C(=O)N[C@H](C(=O)NCC(N)=O)CSCC(=O)N[C@@H](Cc2ccc(O)cc2)C(=O)N1C [Example 10544] ({CH2CO}-Y[NMeNle]DPHQ[Hyp][Trp(βS-Me)]SW[NMeA][NMeA]ECG-NH2; thioether N-14)
1 to 9.9 | CCCC[C@H]1C(=O)N(C)[C@@H](CCCC)C(=O)N[C@@H](CCC(=O)O)C(=O)N[C@H](C(=O)NCC(N)=O)CSCC(=O)N[C@@H](Cc2ccc(O)cc2)C(=O)N(C)[C@@H](C)C(=O)N[C@@H](CC(N)=O)C(=O)N2CCC[C@H]2C(=O)N[C@@H](CO)C(=O)N[C@@H](CCC(=O)O)C(=O)N2C[C@H](O)C[C@H]2C(=O)N[C@@H](Cc2c[nH]c3ccccc23)C(=O)N[C@@H](CCN)C(=O)N[C@@H](Cc2c[nH]c3ccccc23)C(=O)N1C [Example 5167] ({CH2CO}-Y[NMeA]NPSE[Hyp]W[Dab]W[NMeNle][NMeNle]ECG-NH2; thioether N-14)
1 to 9.9 | CCCC[C@H]1C(=O)N(C)[C@@H](CCCC)C(=O)N[C@@H](CCC(=O)O)C(=O)N[C@H](C(=O)NCC(N)=O)CSCC(=O)N[C@@H](Cc2ccc(O)cc2)C(=O)N(C)[C@@H](C)C(=O)N[C@@H](CC(=O)O)C(=O)N2CCC[C@H]2C(=O)N[C@@H](Cc2c[nH]cn2)C(=O)N[C@@H](CCCCNC(C)=O)C(=O)N2C[C@H](O)C[C@H]2C(=O)N[C@@H](Cc2c[nH]c3ccccc23)C(=O)N[C@@H](CO)C(=O)N[C@@H](Cc2c[nH]c3ccccc23)C(=O)N1C [Example 5255] ({CH2CO}-Y[NMeA]DPHK(Ac)[Hyp]WSW[NMeNle][NMeNle]ECG-NH2; thioether N-14)
10 to 99.9 | CCCC[C@H]1C(=O)N(C)[C@@H](CCCC)C(=O)N[C@@H](CC(C)C)C(=O)N[C@H](C(N)=O)CSCC(=O)N[C@@H](Cc2ccc(O)cc2)C(=O)N(C)[C@@H](C)C(=O)N[C@@H](CC(N)=O)C(=O)N2CCC[C@H]2C(=O)N[C@@H](CN)C(=O)N[C@@H](CC(C)C)C(=O)N2C[C@H](O)C[C@H]2C(=O)N[C@@H](Cc2c[nH]c3ccccc23)C(=O)N[C@@H](CC(=O)O)C(=O)N[C@@H](Cc2cn(CC(=O)O)c3ccccc23)C(=O)N1C [Example 6258] ({CH2CO}-Y[NMeA]NP[Dap]L[Hyp]WD[Trp(1-CH2COOH)][NMeNle][NMeNle]LC-NH2; thioether N-14)
1 to 9.9 | CCCC[C@H]1C(=O)N2CCC[C@@H]2C(=O)N[C@@H](CC(N)=O)C(=O)N[C@@H](C(C)C)C(=O)N(C)[C@@H](Cc2ccccc2)C(=O)N[C@@H](CC(=O)O)C(=O)N2CCCC[C@@H]2C(=O)N[C@@H](Cc2c[nH]c3ccccc23)C(=O)N[C@@H](Cc2ccc(O)cc2)C(=O)N[C@@H](CC(C)C)C(=O)N[C@H](C(=O)NCC(N)=O)CSCC(=O)N[C@@H](Cc2cc(F)c(F)c(F)c2)C(=O)N(C)[C@@H](Cc2ccc(F)cc2)C(=O)N1C [Example 10584] ({CH2CO}-[Phe(3,4,5-F3)][NMePhe(4-F)][NMeNle][dP]NV[NMeF]D[dPip]WYLCG-NH2; thioether N-13)
10 to 99.9 | CCCC[C@H]1C(=O)N(C)[C@@H](CCCC)C(=O)N[C@@H](C)C(=O)N[C@H](C(=O)NCC(N)=O)CSCC(=O)N[C@@H](Cc2ccc(O)cc2)C(=O)N2CCCC[C@H]2C(=O)N[C@@H](CC(=O)O)C(=O)N2CCC[C@H]2C(=O)N[C@@H](Cc2cnc[nH]2)C(=O)N[C@@H](CCC(N)=O)C(=O)N2C[C@H](O)C[C@H]2C(=O)N[C@@H](Cc2c[nH]c3ccccc23)C(=O)N[C@@H](CO)C(=O)N[C@@H](Cc2cn(CC(=O)O)c3ccccc23)C(=O)N1C [Example 1292] ({CH2CO}-Y[Pip]DPHQ[Hyp]WS[Trp(1-CH2COOH)][NMeNle][NMeNle]ACG-NH2; thioether N-14)
1 to 9.9 | CCCC[C@H]1C(=O)N(C)[C@@H](CCCC)C(=O)N[C@@H](CCC(=O)O)C(=O)N[C@H](C(=O)NCC(N)=O)CSCC(=O)N[C@@H](Cc2ccc(O)cc2)C(=O)N(C)[C@@H](C)C(=O)N[C@@H](CC(N)=O)C(=O)N2CCC[C@H]2C(=O)N[C@@H](CN)C(=O)N[C@@H](CCC(=O)O)C(=O)N2C[C@H](O)C[C@H]2C(=O)N[C@@H](Cc2c[nH]c3ccccc23)C(=O)N[C@@H](CO)C(=O)N[C@@H](Cc2c[nH]c3ccccc23)C(=O)N1C [Example 5242] ({CH2CO}-Y[NMeA]NP[Dap]E[Hyp]WSW[NMeNle][NMeNle]ECG-NH2; thioether N-14)
1 to 9.9 | CCCC[C@H]1C(=O)N(C)[C@@H](CCCC)C(=O)N[C@@H](CC(C)C)C(=O)N[C@H](C(=O)NCC(N)=O)CSCC(=O)N[C@@H](Cc2ccc(OC)cc2)C(=O)N(C)[C@@H](C)C(=O)N[C@@H](CC(N)=O)C(=O)N2CCC[C@H]2C(=O)N[C@@H](Cc2c[nH]cn2)C(=O)N[C@@H](CCC(N)=O)C(=O)N2C[C@H](O)C[C@H]2C(=O)N[C@@H](Cc2c[nH]c3ccccc23)C(=O)N[C@@H](CO)C(=O)N[C@@H](Cc2cn(CC(=O)O)c3ccccc23)C(=O)N1C [Example 7141] ({CH2CO}-Y(Me)[NMeA]NPHQ[Hyp]WS[Trp(1-CH2COOH)][NMeNle][NMeNle]LCG-NH2; thioether N-14)
10 to 99.9 | CCCC[C@H]1C(=O)N(C)[C@@H](CCCC)C(=O)N[C@@H](CCC(=O)O)C(=O)N[C@H](C(=O)NCC(N)=O)CSCC(=O)N[C@@H](Cc2ccc(O)cc2)C(=O)N2CCCC[C@H]2C(=O)N[C@@H](CC(N)=O)C(=O)N2CCC[C@H]2C(=O)N[C@@H](Cc2cnc[nH]2)C(=O)N[C@@H](CCC(=O)O)C(=O)N2C[C@H](O)C[C@H]2C(=O)N[C@@H](Cc2c[nH]c3ccccc23)C(=O)N[C@@H](CO)C(=O)N[C@@H](Cc2cn(C)c3ccccc23)C(=O)N1C [Example 1504] ({CH2CO}-Y[Pip]NPHE[Hyp]WS[Trp(1-Me)][NMeNle][NMeNle]ECG-NH2; thioether N-14)
1 to 9.9 | CCCC[C@H]1C(=O)N2C[C@H](O)C[C@@H]2C(=O)N[C@@H](CC(=O)O)C(=O)N[C@@H](C(C)C)C(=O)N(C)[C@@H](Cc2ccccc2)C(=O)N[C@@H](CCC(N)=O)C(=O)N2C[C@H](O)C[C@@H]2C(=O)N[C@@H](Cc2c[nH]c3ccccc23)C(=O)N[C@@H](Cc2ccc(O)cc2)C(=O)N[C@@H](CCCCN)C(=O)N[C@H](C(=O)NCC(N)=O)CSCC(=O)N[C@@H](Cc2cc(F)c(F)c(F)c2)C(=O)N(C)[C@@H](Cc2ccccc2)C(=O)N1C [Example 9353] ({CH2CO}-[Phe(3,4,5-F3)][NMeF][NMeNle][d(cisHyp)]DV[NMeF]Q[d(cisHyp)]WYKCG-NH2; thioether N-13)
1000 to 10000 | CCCC[C@H]1C(=O)N[C@@H](CC(N)=O)C(=O)N2CCC[C@H]2C(=O)N[C@@H](CO)C(=O)N[C@@H](CCO)C(=O)N2C[C@H](O)C[C@H]2C(=O)N[C@@H](Cc2c[nH]c3ccccc23)C(=O)N[C@@H](CO)C(=O)N[C@@H](Cc2c[nH]c3ccccc23)C(=O)N(C)[C@@H](C)C(=O)N(C)[C@@H](C)C(=O)N[C@@H](CCC(=O)O)C(=O)NC(C(=O)NCC(N)=O)CSCC(=O)N[C@@H](Cc2ccc(O)cc2)C(=O)N1C (stereo partly drawn) [Example 10212] ({CH2CO}-Y[NMeNle]NPS[hSer][Hyp]WSW[NMeA][NMeA]E[ξC]G-NH2; thioether N-14)
1 to 9.9 | CCCC[C@H]1C(=O)N(C)[C@@H](CCCC)C(=O)N[C@@H](CCCNC(=N)N)C(=O)N[C@H](C(=O)NCC(N)=O)CSCC(=O)N[C@@H](Cc2ccc(Cl)cc2Cl)C(=O)N(C)[C@@H](C)C(=O)N[C@@H](CC(N)=O)C(=O)N2CCC[C@H]2C(=O)N[C@@H](CN)C(=O)N[C@@H](CC(C)C)C(=O)N2C[C@H](O)C[C@H]2C(=O)N[C@@H](Cc2c[nH]c3ccccc23)C(=O)N[C@@H](CO)C(=O)N[C@@H](CC2CNc3ccccc32)C(=O)N1C (stereo partly drawn) [Example 7069] ({CH2CO}-[Phe(2,4-Cl2)][NMeA]NP[Dap]L[Hyp]WS[X8][NMeNle][NMeNle]RCG-NH2; thioether N-14)
1 to 9.9 | CCCC[C@H]1C(=O)N(C)[C@@H](CCCC)C(=O)N[C@@H](CCCN)C(=O)N[C@H](C(=O)NCC(N)=O)CSCC(=O)N[C@@H](Cc2ccc(OC)cc2)C(=O)N(C)[C@@H](C)C(=O)N[C@@H](CC(=O)O)C(=O)N2CCC[C@H]2C(=O)N[C@@H](Cc2cnc[nH]2)C(=O)N[C@@H](CCCCN)C(=O)N2C[C@H](O)C[C@H]2C(=O)N[C@@H](Cc2c[nH]c3ccccc23)C(=O)N[C@@H](CC(=O)O)C(=O)N[C@@H](Cc2c[nH]c3ccccc23)C(=O)N1C [Example 7106] ({CH2CO}-Y(Me)[NMeA]DPHK[Hyp]WDW[NMeNle][NMeNle][Orn]CG-NH2; thioether N-14)

same assay, conditions: PD-L1-His 10 nM, PD-1-Ig 20 nM; read-out: HTRF Human PD-L1/PD-1 Binding Assay IC50

IC50 [nM] | Compound
10000 | CCCC[C@H]1C(=O)N(C)CC(=O)N[C@@H](CC(=O)O)C(=O)NC(C(C)c2ccccc2)C(=O)N(C)[C@@H](Cc2ccccc2)C(=O)N[C@@H](Cc2ccc(O)cc2)C(=O)N(C)CC(=O)N[C@@H](Cc2c[nH]c3ccccc23)C(=O)N[C@@H](Cc2ccc(O)cc2)C(=O)N[C@@H](CC(C)C)C(=O)N[C@H](C(=O)NCC(N)=O)CSCC(=O)N[C@@H](Cc2ccccc2)C(=O)N(C)[C@@H](Cc2ccccc2)C(=O)N1C (single isomer, unassigned) [Example 3230-D]
